We go through 19 compounds from ChEMBL document CHEMBL1132138, “Leishmanicidal activity of combretastatin analogues and heteroanalogues” (Bioorg Med Chem Lett, 1999).

Molecules are shown by their SMILES. Activity calls are given as the source filed them. The rule behind the calls is not given here.

Format in all cases: functional, organism-based
The subject of test [1] is Leishmania donovani. Briefly: Compound was tested in vitro for leishmanicidal activity against Leishmania donovani (PP75) at a dose 100 ug/mL; ++ = 80-90% of lysis.
Test [2] has as its system Leishmania braziliensis. Put plainly: Compound was tested in vitro for leishmanicidal activity against Leishmania brasiliensis (2903) at a dose 100 ug/mL; ++ = 80-90% of lysis.
Test [3] deals with Leishmania amazonensis. Put plainly: In vitro evaluation of leishmanicidal activity against Leishmania amazonensis (PH8) at a dose 100 ug/mL; ++ = 80-90% of lysis.
Test [4] relates to Leishmania amazonensis. Briefly: In vitro evaluation of leishmanicidal activity against Leishmania amazonensis (PH8) at a dose 25 ug/mL; ++ = 80- 90% lysis.
For test [5], the system named is Leishmania braziliensis. Put plainly: In vitro evaluation of leishmanicidal activity against Leishmania brasiliensis (2903) at a dose 10 ug/mL; ++ = 80- 90% lysis.
Test [6] relates to Leishmania amazonensis. Put plainly: In vitro evaluation of leishmanicidal activity against Leishmania amazonensis (PH8) at a dose 10 ug/mL; ++ = 80- 90% lysis.
Test [7] concerns Leishmania donovani. Put plainly: In vitro evaluation of leishmanicidal activity against Leishmania donovani (PP75) at a dose 25 ug/mL; ++ = 80- 90% lysis.
Test [8] concerns Leishmania braziliensis. Briefly: In vitro evaluation of leishmanicidal activity against Leishmania brasiliensis (2903) at a dose 25 ug/mL; ++ = 80- 90% lysis.
For test [9], the system named is Leishmania donovani. Briefly: In vitro evaluation of leishmanicidal activity against Leishmania donovani (PP75) at a dose 10 ug/mL; ++ = 80- 90% lysis.
Test [10] has as its system Leishmania braziliensis. Briefly: In vitro evaluation of leishmanicidal activity against Leishmania brasiliensis (2903) at a dose 50 ug/mL; ++ = 80- 90% lysis.
The test system of test [11] is Leishmania braziliensis. Put plainly: In vitro evaluation of leishmanicidal activity against Leishmania brasiliensis (2903) at a dose 100 ug/mL; ++ = 80- 90% lysis.
Test [12] concerns Leishmania donovani. Put plainly: In vitro evaluation of leishmanicidal activity against Leishmania donovani (PP75) at a dose 100 ug/mL; ++ = 80- 90% lysis.
Test [13] concerns Leishmania amazonensis. Briefly: In vitro evaluation of leishmanicidal activity against Leishmania amazonensis (PH8) at a dose 100 ug/mL; ++ = 80- 90% lysis.
The test system of test [14] is Leishmania donovani. Briefly: In vitro evaluation of leishmanicidal activity against Leishmania donovani (PP75) at a dose 50 ug/mL; ++ = 80- 90% lysis.
The test system of test [15] is Leishmania amazonensis. Put plainly: In vitro evaluation of leishmanicidal activity against Leishmania amazonensis (PH8) at a dose 50 ug/mL; ++ = 80- 90% lysis.
In test [16] the test system is Leishmania amazonensis. Briefly: In vitro evaluation of leishmanicidal activity against Leishmania amazonensis (PH8) at a dose 25 ug/mL; Total lysis of parasites.
Test [17] concerns Leishmania donovani. Briefly: In vitro evaluation of leishmanicidal activity against Leishmania donovani (PP75) at a dose 100 ug/mL; +++=total lysis of parasites.
For test [18], the system named is Leishmania braziliensis. Briefly: In vitro evaluation of leishmanicidal activity against Leishmania brasiliensis (2903) at a dose 25 ug/mLv.
Test [19] relates to Leishmania amazonensis. Put plainly: In vitro evaluation of leishmanicidal activity against Leishmania amazonensis (PH8) at a dose 100 ug/mL; +++=total lysis of parasites.
Test [20] has as its system Leishmania donovani. Briefly: In vitro evaluation of leishmanicidal activity against Leishmania donovani (PP75) at a dose 50 ug/mL; +++=total lysis of parasites.
For test [21], the system named is Leishmania amazonensis. Put plainly: In vitro evaluation of leishmanicidal activity against Leishmania amazonensis (PH8) at a dose 50 ug/mL; Total lysis of parasites.
Test [22] deals with Leishmania donovani. Put plainly: In vitro evaluation of leishmanicidal activity against Leishmania donovani (PP75) at a dose 25 ug/mL; +++=total lysis of parasites.
Test [23] deals with Leishmania donovani. Put plainly: In vitro evaluation of leishmanicidal activity against Leishmania donovani (PP75) at a dose 10 ug/mL; +++=total lysis of parasites.
In test [24] the test system is Leishmania amazonensis. Briefly: In vitro evaluation of leishmanicidal activity against Leishmania amazonensis (PH8) at a dose 10 ug/mL; +++=total lysis of parasites.
In test [25] the test system is Leishmania braziliensis. Briefly: In vitro evaluation of leishmanicidal activity against Leishmania brasiliensis (2903) at a dose 100 ug/mL; +++=total lysis of parasites.
Test [26] concerns Leishmania braziliensis. Briefly: In vitro evaluation of leishmanicidal activity against Leishmania brasiliensis (2903) at a dose 50 ug/mL; +++=total lysis of parasites.
Test [27] relates to Leishmania braziliensis. Briefly: In vitro evaluation of leishmanicidal activity against Leishmania brasiliensis (2903) at a dose 10 ug/mL; +++=total lysis of parasites.
Test [28] relates to Leishmania donovani. Briefly: In vitro evaluation of leishmanicidal activity against Leishmania donovani (PP75) at a dose 100 ug/mL; + = <70% lysis.
Test [29] concerns Leishmania braziliensis. Briefly: In vitro evaluation of leishmanicidal activity against Leishmania brasiliensis (2903) at a dose 100 ug/mL; + = <70% lysis.
For test [30], the system named is Leishmania amazonensis. Briefly: In vitro evaluation of leishmanicidal activity against Leishmania amazonensis (PH8) at a dose 50 ug/mL;++ = 80- 90% lysis.
For test [31], the system named is Leishmania amazonensis. Put plainly: In vitro evaluation of leishmanicidal activity against Leishmania amazonensis (PH8) at a dose 100 ug/mL; + = <70% lysis.

Regarding `COc1cc(CC2(c3cn(C)c4ccccc34)SCCCS2)cc(OC)c1OC`, the Leishmanicidal activity in [1], in test [2] and in [3] was 80-90% of lysis in each case.

Take `COc1cc(CCc2cn(C)c3ccccc23)cc(OC)c1OC`: the Leishmanicidal activity in [4], in test [5], in test [6], in test [7], in test [8] and in test [9] was 80- 90% lysis in each case.

As to `COc1cc(CC(=O)c2ccc3c(c2)OCO3)cc(OC)c1OC`, the Leishmanicidal activity in test [10], in test [4], in test [5], in test [6], in [7] and in test [8] was 80- 90% lysis in each case. Further, the Leishmanicidal activity in test [9] is 80- 90% lysis.

With `COc1ccc(CCc2ccco2)cc1O`, the Leishmanicidal activity in [11], in [12] and in [13] was 80- 90% lysis in each case.

For the compound `COc1cc(CC(=O)c2ccc(C)o2)cc(OC)c1OC`, the Leishmanicidal activity in test [12], in test [5], in test [6] and in test [9] was 80- 90% lysis throughout.

Regarding `COc1cc(CC(O)c2ccco2)cc(OC)c1OC` (stereo not given), the Leishmanicidal activity in [11], in test [12] and in test [13] was 80- 90% lysis throughout.

In the case of `COc1cc(CCc2ccco2)cc(OC)c1OC`, the Leishmanicidal activity in test [4], in [12], in [5], in test [6], in test [7] and in test [8] was 80- 90% lysis each time. Also, the Leishmanicidal activity in [9] is on record as 80- 90% lysis.

Take `COc1cc(CC(O)c2ccc3c(c2)OCO3)cc(OC)c1OC` (stereo not given): the Leishmanicidal activity in test [10], in test [4], in test [14], in [5], in [6] and in test [7] was 80- 90% lysis throughout. Besides, the Leishmanicidal activity in [15], in [8] and in test [9] was 80- 90% lysis throughout.

Consider `COc1ccc(CCc2ccc3c(c2)OCO3)cc1O`, for which the Leishmanicidal activity in [10], in test [11], in test [14], in [13] and in test [15] was 80- 90% lysis each time.

With `COc1cc(CC(=O)c2ccoc2)cc(OC)c1OC`, the Leishmanicidal activity in [11], in [12] and in test [13] was 80- 90% lysis each time.

As for `N=C(N)c1ccc(OCCCCCOc2ccc(C(=N)N)cc2)cc1`, the Leishmanicidal activity result in [16], in test [17], in test [18], in test [19], in test [20] and in [21] was “Active” throughout. In addition, the Leishmanicidal activity entry in test [22], in test [23], in test [24], in [25], in test [26] and in [27] was “Active” each time.

With `COc1cc(CCc2ccoc2)cc(OC)c1OC`, the Leishmanicidal activity in [28] and in test [29] was below 70% lysis in each case.

`COc1cc(CCc2ccc3ccccc3c2)cc(OC)c1OC`: the Leishmanicidal activity in test [10], in test [14] and in [15] was 80- 90% lysis each time.

In the case of `COc1ccc2[nH]c(-c3ccc4c(c3)OCO4)c(-c3cc(OC)c(OC)c(OC)c3)c2c1`, the Leishmanicidal activity in test [10], in [14] and in [30] was 80- 90% lysis in each case.

For `COc1cc(CC(=O)c2ccco2)cc(OC)c1OC`, the Leishmanicidal activity in test [5], in test [6] and in test [9] was 80- 90% lysis in each case.

On to `COc1ccc(CC(=O)c2ccco2)cc1O`, for which the Leishmanicidal activity in test [11], in [12] and in [13] was 80- 90% lysis each time.

With `COc1ccc2[nH]c(-c3ccc4ccccc4c3)c(-c3cc(OC)c(OC)c(OC)c3)c2c1`, the Leishmanicidal activity in test [11], in [12] and in test [13] was 80- 90% lysis in each case.

Regarding `COc1ccc2[nH]c(-c3ccco3)c(-c3cc(OC)c(OC)c(OC)c3)c2c1`, the Leishmanicidal activity in [5], in [6] and in [9] was 80- 90% lysis each time.

`COc1cc(C(O)C(=O)c2cccs2)cc(OC)c1OC` (stereo not given): the Leishmanicidal activity in test [28], in test [31] and in test [29] was below 70% lysis each time.
